Where two headings read alike, the source gives them in different places.
Biological target: T1, human IBAT (Homo sapiens, UniProt Q12908)
T1 construct: expressed in transfected cells; host or cells: Baby hamster kidney (BHK) cells, clone H14
T1 sequence (Q12908 1-348): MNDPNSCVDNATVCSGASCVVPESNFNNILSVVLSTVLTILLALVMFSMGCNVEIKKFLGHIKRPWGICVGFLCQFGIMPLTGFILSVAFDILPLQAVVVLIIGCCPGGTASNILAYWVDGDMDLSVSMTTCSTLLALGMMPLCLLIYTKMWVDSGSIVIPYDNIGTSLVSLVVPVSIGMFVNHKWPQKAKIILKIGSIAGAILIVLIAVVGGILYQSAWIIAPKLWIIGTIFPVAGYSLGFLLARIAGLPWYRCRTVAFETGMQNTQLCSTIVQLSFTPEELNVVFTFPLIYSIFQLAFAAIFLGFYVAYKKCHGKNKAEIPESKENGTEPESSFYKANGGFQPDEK
Assay: In vitro assay of IBAT-mediated uptake of [14C]-taurocholate (TC) in H14 cells
Format: cell-based
Procedure: In Vitro Assay of Compounds that Inhibit IBAT-Mediated Uptake of [^14C]-Taurocholate (TC) in H14 Cells
Baby hamster kidney cells (BHK) transfected with the cDNA of human IBAT (H14 cells) are seeded at 60,000 cells/well in 96 well Top-Count tissue culture plates for assays run within in 24 hours of seeding, 30,000 cells/well for assays run within 48 hours, and 10,000 cells/well for assays run within 72 hours.
On the day of assay, the cell monolayer is gently washed once with 100 μl assay buffer (Dulbecco's Modified Eagle's medium with 4.5 g/L glucose+0.2% (w/v) fatty acid free bovine serum albumin-(FAF)BSA). To each well 50 μl of a two-fold concentrate of test compound in assay buffer is added along with 50 μl of 6 μM [^14C]-taurocholate in assay buffer (final concentration of 3 μM [^14C]-taurocholate). The cell culture plates are incubated 2 hours at 37° C. prior to gently washing each well twice with 100 μl 4° C. Dulbecco's phosphate-buffered saline (PBS) containing 0.2% (w/v) (FAF)BSA. The wells are then gently washed once with 100 μl 4° C. PBS without (FAF)BSA. To each 200 μl of liquid scintillation counting fluid is added, the plates are heat sealed and shaken for 30 minutes at room temperature prior to measuring the amount of radioactivity in each well on a Packard Top-Count instrument.

| IC50 (read-out: Human TC IC50) | Structure (SMILES) | IC50 (Human TC IC50) |
| --- | --- | --- |
| 600 nM | CCCCC1(CC)CS(=O)(=O)c2ccc(NS(C)(=O)=O)cc2C(c2ccccc2)C1O (centres unmarked) [Example 105] |  |
| 800 nM | CCCCC1(CC)CS(=O)(=O)c2ccc(NC(=O)CBr)cc2C(c2ccccc2)C1O (centres unmarked) [Example 106] |  |
| 300 nM | CCCCCC(=O)Nc1ccc2c(c1)C(c1ccccc1)C(O)C(CC)(CCCC)CS2(=O)=O (centres unmarked) [Example 108] |  |
| 90 nM | CCCCC1(CC)CS(=O)(=O)c2ccc(NC(C)=O)cc2C(c2ccccc2)C1O (centres unmarked) [Example 110] |  |
| 2500 nM | CCCC[C@@]1(CC)CS(=O)(=O)c2ccc(N)cc2[C@@H](c2ccc(O)cc2)[C@H]1O [Example 111] |  |
| 3000 nM | CCCC[C@]1(CC)CS(=O)(=O)c2ccc(N)cc2[C@@H](c2ccc(OCCOCCOCCOc3ccc([C@H]4c5cc(N)ccc5S(=O)(=O)C[C@](CC)(CCCC)[C@H]4O)cc3)cc2)[C@H]1O [Example 112] |  |
| 100 nM | CCCC[C@]1(CC)CS(=O)(=O)c2ccc(N)cc2[C@@H](c2ccc(O)cc2)[C@H]1O [Example 113] |  |
| 190 nM | CCCCC1(CC)CS(=O)(=O)c2ccc(N)cc2C(c2ccc(OC)cc2)C1O (centres unmarked) [Example 114] |  |
| 400 nM | CCCCC1(CC)CS(=O)(=O)c2ccc(NC(=O)OCc3ccccc3)cc2C(c2ccccc2)C1O (centres unmarked) [Example 118] |  |
| 1670 nM | CCCCCCNc1ccc2c(c1)C(c1ccccc1)C(O)C(CC)(CCCC)CS2(=O)=O (centres unmarked) [Example 123] |  |
| 18000 nM | CCCC[C@]1(CC)CS(=O)(=O)c2cc(OCCOCCOCC[N+](C)(C)C)ccc2[C@@H](c2ccccc2)[C@H]1O [Example 125] |  |
| 700 nM | CCCCC1(CC)CS(=O)(=O)c2ccc(NC(=O)OCc3ccccc3)cc2C(c2ccc(F)cc2)C1O (centres unmarked) [Example 128] |  |
| 300 nM | CCCC[C@]1(CC)CS(=O)(=O)c2cc(OCCOCCOCCI)ccc2[C@@H](c2ccccc2)[C@H]1O [Example 134] |  |
| 90 nM | CCCC[C@]1(CC)CS(=O)(=O)c2cc(O)ccc2[C@@H](c2ccccc2)[C@H]1O [Example 136] |  |
| 3000 nM | CCCCC1(CC)CS(=O)(=O)c2cc(OC(C)=O)ccc2C(c2ccccc2)C1O (centres unmarked) [Example 138] |  |
|  | CCCCC1(CC)CS(=O)(=O)c2ccc(OCCCCCCOc3ccc4c(c3)C(c3ccccc3)C(O)C(CC)(CCCC)CS4(=O)=O)cc2C(c2ccccc2)C1O (centres unmarked) [Example 139] | > 25000 nM |
| 53 nM | CCCCC1(CC)CS(=O)(=O)c2ccc(N3CCC3)cc2C(c2ccc(F)cc2)C1O (centres unmarked) [Example 144] |  |
| 500 nM | CCCCC1(CC)CS(=O)(=O)c2ccc(O)cc2C(c2cccc(O)c2)C1O (centres unmarked) [Example 266] |  |
| 73 nM | CCCCC1(CC)CS(=O)(=O)c2ccc(OC)cc2C(c2cccc(O)c2)C1O (centres unmarked) [Example 267] |  |
| 29 nM | CCCCC1(CC)CS(=O)(=O)c2ccc(OC)cc2C(c2ccc(F)cc2)C1O (centres unmarked) [Example 268] |  |

| IC50 (read-out: Human TC IC50) | Structure (SMILES) | IC50 (Human TC IC50) |
| --- | --- | --- |
| 80 nM | CCCCC1(CC)CS(=O)(=O)c2ccc(OC)cc2C(c2ccc(F)cc2)C1O (centres unmarked) [Example 269] |  |
| 120 nM | CCCCC1(CC)CS(=O)(=O)c2ccc(O)cc2C(c2ccc(F)cc2)C1O (centres unmarked) [Example 270] |  |
| 230 nM | CCCCC1(CC)CS(=O)(=O)c2ccc(F)cc2C(c2cccc(OC)c2)C1O (centres unmarked) [Example 276] |  |
| 40 nM | CCCCC1(CC)CS(=O)(=O)c2ccc(OC)cc2C(c2cccc(F)c2)C1O (centres unmarked) [Example 277] |  |
| 180 nM | CCCCC1(CC)CS(=O)(=O)c2ccc(OC)cc2C(c2ccccc2F)C1O (centres unmarked) [Example 280] |  |
| 19 nM | CCCCC1(CC)CS(=O)(=O)c2ccc(SC)cc2C(c2ccc(F)cc2)C1O (centres unmarked) [Example 281] |  |
| 80 nM | CCCCC1(CC)CS(=O)(=O)c2ccc(N3CCOCC3)cc2C(c2ccc(F)cc2)C1O (centres unmarked) [Example 284] |  |
| 4000 nM | CCC1(CC)CS(=O)(=O)c2ccc(N)cc2[C@@H](c2ccccc2)[C@H]1O [Example 287] |  |
| 230 nM | CCCC1(CCC)CS(=O)(=O)c2ccc(N)cc2[C@@H](c2ccccc2)[C@H]1O [Example 289] |  |
| 54 nM | CCCCC1(CCCC)CS(=O)(=O)c2ccc(N)cc2[C@@H](c2ccccc2)[C@H]1O [Example 290] |  |
| 46 nM | CCCCC1(CCCC)CS(=O)(=O)c2ccc(N)cc2[C@@H](c2ccc(F)cc2)[C@H]1O [Example 292] |  |
| 13 nM | CCCCC1(CCCC)CS(=O)(=O)c2ccc(N(C)C)cc2C(c2ccccc2)C1O (centres unmarked) [Example 294] |  |
| 1300 nM | CCCC[C@]1(CC)CS(=O)(=O)c2ccc(N)cc2[C@@H](c2ccc(OCCOCCOCCI)cc2)[C@H]1O [Example 295] |  |
| 1600 nM | CCCCC1(CC)CS(=O)(=O)c2ccc(N)cc2C(c2ccc(OCCOCCOCC[N+](C)(C)C)cc2)C1O (centres unmarked) [Example 296] |  |
| 0.4 nM | CCCCC1(CCCC)CS(=O)(=O)c2ccc(N(C)C)cc2C(c2cccc(NC(=O)CCCC[N+](CC)(CC)CC)c2)C1O (centres unmarked) [Example 1005] |  |
| 1 nM | CCCCC1(CCCC)CS(=O)(=O)c2ccc(N(C)C)cc2C(c2ccc(OCCOCC[N+]3(C)CCN(C)CC3)c(F)c2)C1O (centres unmarked) [Example 1006] |  |
| 1 nM | CCCCC1(CCCC)CS(=O)(=O)c2ccc(N(C)C)cc2C(c2cccc(OCCOCCOCC[N+](CC)(CC)CC)c2)C1O (centres unmarked) [Example 1007] |  |
| 1 nM | CCCCC1(CCCC)CS(=O)(=O)c2ccc(N(C)C)cc2C(c2cccc(OCCOCCOCC[n+]3ccccn3)c2)C1O (centres unmarked) [Example 1008] |  |
| 1 nM | CCCCC1(CCCC)CS(=O)(=O)c2ccc(N(C)C)cc2C(c2cccc(OCCOCCOCC[n+]3ccc(N(C)C)cc3)c2)C1O (centres unmarked) [Example 1009] |  |
| 1 nM | CCCCC1(CCCC)CS(=O)(=O)c2ccc(N(C)C)cc2C(c2ccc(OC)c(F)c2)C1O (centres unmarked) [Example 1010] |  |

| IC50 (read-out: Human TC IC50) | Structure (SMILES) | IC50 (Human TC IC50) |
| --- | --- | --- |
| 1 nM | CCCCC1(CCCC)CS(=O)(=O)c2ccc(N(C)C)cc2C(c2ccc(OCCCCC[N+](CC)(CC)CC)c(F)c2)C1O (centres unmarked) [Example 1011] |  |
| 1.5 nM | CCCCC1(CCCC)CS(=O)(=O)c2c(OC)cc(N(C)C)cc2C(c2ccc(O)cc2)C1O (centres unmarked) [Example 1012] |  |
| 2 nM | CCCCC1(CCCC)CS(=O)(=O)c2ccc(N(C)C)cc2C(c2ccc(OCCOCCOCC[N+](C)(C)C)c(F)c2)C1O (centres unmarked) [Example 1013] |  |
| 2 nM | CCCCC1(CCCC)CS(=O)(=O)c2c(OC)cc(N(C)C)cc2C(c2ccc(OC)cc2)C1O (centres unmarked) [Example 1014] |  |
| 2 nM | CCCCC1(CCCC)CS(=O)(=O)c2ccc(N(C)C)cc2C(c2ccc(OCCOCC[N+]3(C)CCCC3)c(F)c2)C1O (centres unmarked) [Example 1015] |  |
| 2 nM | CCCCC1(CCCC)CS(=O)(=O)c2ccc(N(C)C)cc2C(c2cccc(OCCOCCOCC[N+](C)(C)CC(=O)O)c2)C1O (centres unmarked) [Example 1016] |  |
| 2 nM | CCCCC1(CCCC)CS(=O)(=O)c2ccc(N(C)C)cc2C(c2cccc(OCCOCCOCC[n+]3ccc(C)c4ccccc43)c2)C1O (centres unmarked) [Example 1017] |  |
| 2 nM | CCCCC1(CCCC)CS(=O)(=O)c2ccc(N(C)C)cc2C(c2cccc(OCCOCCOCC[N+](C)(C)CCN(C)C(=O)c3ccccc3)c2)C1O (centres unmarked) [Example 1018] |  |
| 2 nM | CCCCC1(CCCC)CS(=O)(=O)c2ccc(N(C)C)cc2C(c2ccc(OCCCCOCCCC[n+]3ccccc3)c(F)c2)C1O (centres unmarked) [Example 1019] |  |
| 2 nM | CCCCC1(CCCC)CS(=O)(=O)c2ccc(N(C)C)cc2C(c2ccc(OCc3cccc(C[N+](CC)(CC)CC)n3)c(F)c2)C1O (centres unmarked) [Example 1020] |  |
| 2 nM | CCCCC1(CCCC)CS(=O)(=O)c2ccc(N(C)C)cc2C(c2cccc(OCCOCCOCC[N+]3(CCO)CCOCC3)c2)C1O (centres unmarked) [Example 1021] |  |
| 2 nM | CCCCC1(CCCC)CS(=O)(=O)c2ccc(N(C)C)cc2C(c2cccc(OCCOCCOCC[N+](CC)(CC)CCO)c2)C1O (centres unmarked) [Example 1022] |  |
| 2 nM | C=C(C)C(=O)OCC[N+](CC)(CC)CCOCCOCCOc1cccc(C2c3cc(N(C)C)ccc3S(=O)(=O)CC(CCCC)(CCCC)C2O)c1 (centres unmarked) [Example 1023] |  |
| 2 nM | CCCCC1(CCCC)CS(=O)(=O)c2ccc(N(C)C)cc2C(c2cccc(OCCOCCOCC[N+](C)(C)CCN(C)P(C)(=O)c3ccccc3)c2)C1O (centres unmarked) [Example 1024] |  |
| 2 nM | CCCCC1(CCCC)CS(=O)(=O)c2ccc(N(C)C)cc2C(c2ccc(OCc3cccc(C[N+](CC)(CC)CC)c3)c(F)c2)C1O (centres unmarked) [Example 1025] |  |
| 2 nM | CCCCC1(CCCC)CS(=O)(=O)c2ccc(N(C)C)cc2C(c2cccc(OCCOCCOCC[n+]3ccc(C(C)C)cc3)c2)C1O (centres unmarked) [Example 1026] |  |
| 2 nM | CCCCC1(CCCC)CS(=O)(=O)c2ccc(N(C)C)cc2C(c2cccc(OCCOCCOCC[n+]3ccc(C(C)C)cc3)c2)C1O (centres unmarked) [Example 1027] |  |
| 2 nM | CCCCC1(CCCC)CS(=O)(=O)c2ccc(N(C)C)cc2C(c2cccc(OCCOCCOCC[n+]3ccc(C(=O)O)cc3)c2)C1O (centres unmarked) [Example 1028] |  |
| 2 nM | CCCCC1(CCCC)CS(=O)(=O)c2ccc(N(C)C)cc2C(c2cccc(OCCOCCOCC[N+]3(C)CCC(C(=O)c4ccccc4)CC3)c2)C1O (centres unmarked) [Example 1029] |  |

Reference: patent publication US6784201B2, “Benzothiepines having activity as inhibitors of ileal bile acid transport and taurocholate uptake” (G.D. Searle & Company, priority 1994, dated 2004)
